The structures appear in SMILES notation.

Test system in one data set: not listed separately
The data set is described as follows: Lipophilicity of the compound assessed as retardation factor using hexane-ethyl acetate solvent system (5:2) on silica gel TLC plate system. The class given is physicochemical. The note with it: hexane-ethyl acetate (5:2).
`C=C(C)C1Cc2c(cc(OC)c(OC)c2OC)O1` (centres undefined): the Rf is on record as 0.68.

Regarding `C=C(C)C1Cc2c(cc(OC)c(C(C)=O)c2O)O1` (racemic), the Rf is 0.51.

Regarding `C=C(C)C1Cc2ccccc2O1` (centres undefined), the Rf is given as 0.92.

As to `C=C(C)C1Cc2c(cc(OC)c(C(C)O)c2OC)O1` (centres undefined), the Rf is recorded as 0.83.

On to `C=C(C)c1cc2cc(C(C)=O)c(O)cc2o1` [EUPARIN], for which the Rf stood at 0.76.

In the case of `COc1cc2c(c(OC)c1C(C)=O)CC(C(C)C)O2` (centres undefined), the Rf worked out at 0.58.

With `C=C(C)[C@@H]1Cc2c(cc(OC)c(C(C)=O)c2O)O1` [REMIROL], the Rf is listed as 0.51.

Take `C=C(C)C1Cc2c(OC)cc(OC)cc2O1` (centres undefined): the Rf is 0.82.

For the compound `C=C(C)C1Cc2cc(OC)ccc2O1` (centres undefined), the Rf turned out to be 0.84.

On to `C=C(C)C1Cc2ccc(OC)cc2O1` (centres undefined), for which the Rf came out at 0.86.

Regarding `C=C(C)C1Cc2cc(C(C)=O)c(OC)cc2O1` (centres undefined), the Rf came out at 0.62.

On to `C=C(C)c1cc2cc(C(C)=O)c(OC)cc2o1` [MethylEuparin], for which the Rf came to 0.66.

As for `C=C(C)C1Cc2cc(C(C)=O)ccc2O1` (racemic), the Rf came out at 0.61.

Consider `C=C(C)C1Cc2c(cc(OC)c(C(C)=O)c2OC)O1` (centres undefined), for which the Rf stood at 0.52.

Regarding `C=C(C)C1Cc2c(OC)c(OC)c(OC)c(C(C)=O)c2O1` (centres undefined), the Rf is 0.52.

In the case of `C=C(C)C1Cc2c(OC)cc(OC)c(C(C)=O)c2O1` (centres undefined), the Rf worked out at 0.24.

For another data set, the system named is Spodoptera litura. Nature of the data set: Antifeedant activity against Spodoptera litura third-instar larvae fed on compound treated fresh sweet potato leaves by dual choice leaf disk assay. The class given is functional.
Conditions: not given
With `C=C(C)C1Cc2c(cc(OC)c(OC)c2OC)O1` (centres undefined), the ED50 was determined as 5.6 ×10⁻⁸ mol/cm2 and the pED50 was determined as 7.25.

Take `C=C(C)C1Cc2c(cc(OC)c(C(C)=O)c2O)O1` (racemic): the ED50 is reported as 7.1 ×10⁻⁸ mol/cm2 and the pED50 worked out at 7.15.

With `C=C(C)C1Cc2ccccc2O1` (centres undefined), the ED50 came out at 1.1 umol/cm2 and the pED50 is recorded as 5.96.

On to `C=C(C)C1Cc2c(cc(OC)c(C(C)O)c2OC)O1` (centres undefined), for which the ED50 was 1.1 ×10⁻⁷ mol/cm2 and the pED50 turned out to be 6.96.

Compound `C=C(C)c1cc2cc(C(C)=O)c(O)cc2o1` [EUPARIN] yielded an ED50 of 1.2 ×10⁻⁹ mol/cm2 and a pED50 of 5.92.

The compound `COc1cc2c(c(OC)c1C(C)=O)CC(C(C)C)O2` (centres undefined) returned an ED50 of 7.6 ×10⁻⁸ mol/cm2 and a pED50 of 7.12.

On to `C=C(C)[C@@H]1Cc2c(cc(OC)c(C(C)=O)c2O)O1` [REMIROL], for which the ED50 is 1.3 ×10⁻⁷ mol/cm2 and the pED50 was 6.89.

In the case of `C=C(C)C1Cc2c(OC)cc(OC)cc2O1` (centres undefined), the ED50 stood at 5.3 ×10⁻⁸ mol/cm2 and the pED50 is on record as 7.28.

Regarding `C=C(C)C1Cc2cc(OC)ccc2O1` (centres undefined), the ED50 turned out to be 1.3 ×10⁻⁷ mol/cm2 and the pED50 is 6.89.

`C=C(C)C1Cc2ccc(OC)cc2O1` (centres undefined) displayed an ED50 of 6.3 ×10⁻⁷ mol/cm2 and a pED50 of 6.2.

`C=C(C)C1Cc2cc(C(C)=O)c(OC)cc2O1` (centres undefined) came in with an ED50 of 4.2 ×10⁻⁸ mol/cm2 and a pED50 of 7.38.

`C=C(C)c1cc2cc(C(C)=O)c(OC)cc2o1` [MethylEuparin] came in with an ED50 of 6.1 ×10⁻⁸ mol/cm2 and a pED50 of 7.21.

With `C=C(C)C1Cc2cc(C(C)=O)ccc2O1` (racemic), the ED50 was found to be 7.4 ×10⁻⁸ mol/cm2 and the pED50 was found to be 7.13.

The compound `C=C(C)C1Cc2c(cc(OC)c(C(C)=O)c2OC)O1` (centres undefined) registered an ED50 of 2.8 ×10⁻⁸ mol/cm2 and a pED50 of 7.55.

For the compound `C=C(C)C1Cc2c(OC)c(OC)c(OC)c(C(C)=O)c2O1` (centres undefined), the ED50 amounted to 1.6 ×10⁻⁸ mol/cm2 and the pED50 was found to be 7.8.

On to `C=C(C)C1Cc2c(OC)cc(OC)c(C(C)=O)c2O1` (centres undefined), for which the ED50 is recorded as 5.4 ×10⁻⁹ mol/cm2 and the pED50 came to 8.27.

A further data set relates to Daphnia magna. Nature of the data set: Toxicity against Daphnia magna after 12 hr post compound treatment. The class given is organism-based. To be noted: in vivo.
As to `C=C(C)C1Cc2c(OC)cc(OC)c(C(C)=O)c2O1` (centres undefined), the LD50 stood at 9.1 ppm.
